In US6509368B1, “Use of catechol derivatives as proteinase inhibitors” (Gruenenthal GmbH, priority 1998, dated 2003):
pIC50: −log10 of the molar value.

Key:
[1] = biological target: T1, Human elastase (Homo sapiens, UniProt P08246); experiment: Inhibition of purified human elastase in vitro; assay type: biochemical
T1 sequence (P08246 30-247 limits assumed): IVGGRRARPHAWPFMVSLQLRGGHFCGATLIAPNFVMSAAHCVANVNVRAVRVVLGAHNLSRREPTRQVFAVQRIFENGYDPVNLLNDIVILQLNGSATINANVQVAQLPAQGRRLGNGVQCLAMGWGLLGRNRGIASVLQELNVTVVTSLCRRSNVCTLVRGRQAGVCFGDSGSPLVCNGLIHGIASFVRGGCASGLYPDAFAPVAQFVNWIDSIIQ
Description: (§1) The experiments were carried out in vitro using purified human enzymes. The enzyme substrates used were substrates to be measured by photometry or fluorometry.

[2] = biological target: Human gelatinase B (MMP-9) (Homo sapiens, UniProt P14780); experiment: Inhibition of purified human gelatinase B in vitro; assay type: biochemical
Chain of Human gelatinase B (MMP-9) (P14780 94-707): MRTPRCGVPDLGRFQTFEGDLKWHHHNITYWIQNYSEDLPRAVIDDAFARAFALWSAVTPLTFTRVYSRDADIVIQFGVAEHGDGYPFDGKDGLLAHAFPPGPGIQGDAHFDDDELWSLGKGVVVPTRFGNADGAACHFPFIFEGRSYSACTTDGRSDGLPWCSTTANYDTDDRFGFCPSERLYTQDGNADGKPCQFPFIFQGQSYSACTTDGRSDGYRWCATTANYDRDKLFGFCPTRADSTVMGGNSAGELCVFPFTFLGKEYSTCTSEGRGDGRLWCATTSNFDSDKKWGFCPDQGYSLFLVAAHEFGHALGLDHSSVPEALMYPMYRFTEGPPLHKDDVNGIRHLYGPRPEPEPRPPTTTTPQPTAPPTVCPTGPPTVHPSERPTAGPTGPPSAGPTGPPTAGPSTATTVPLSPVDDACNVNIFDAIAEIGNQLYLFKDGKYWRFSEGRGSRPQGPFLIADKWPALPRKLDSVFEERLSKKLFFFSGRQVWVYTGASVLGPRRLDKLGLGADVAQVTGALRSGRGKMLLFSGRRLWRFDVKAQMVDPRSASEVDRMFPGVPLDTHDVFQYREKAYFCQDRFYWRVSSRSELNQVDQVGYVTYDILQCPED
Description: as §1

[3] = system: mesenchymal cells from the limb buds of murine embryos (chondrocytes); experiment: Organoid model of cartilage formation: mineralisation in the presence of LPS; assay type: cell-based; conditions: concentration of 10 μm; calcium content of extracellular matrix after culturing for 14 days
Description: In a further in vitro experiment, the effectiveness of the compounds as regards inflammatory diseases was tested in an organoid model of cartilage formation. For that model, mesenchymal cells from the limb buds of murine embryos were placed in cell culture. In the cell culture, the cells formed an extracellular matrix corresponding to joint cartilage. Mineralisation of the extracellular matrix was induced by addition of β-glycerophosphate. Cartilage formation and mineralisation were inhibited by addition of bacterial lipopolysaccharide (LPS) as inflammation mediator. The effect of the compounds on the LPS-induced impairment of mineralisation was examined by measuring the calcium content of the extracellular matrix by flame photometry after culturing for 14 days.
The values indicate the percentage increase in mineralisation in comparison with the LPS-treated culture.

[4] = biological target: Stromelysin-1 (MMP-3) (Homo sapiens, UniProt P08254); experiment: Inhibition of purified stromelysin-1 in vitro; assay type: biochemical
Chain of Stromelysin-1 (MMP-3) (P08254 100-477): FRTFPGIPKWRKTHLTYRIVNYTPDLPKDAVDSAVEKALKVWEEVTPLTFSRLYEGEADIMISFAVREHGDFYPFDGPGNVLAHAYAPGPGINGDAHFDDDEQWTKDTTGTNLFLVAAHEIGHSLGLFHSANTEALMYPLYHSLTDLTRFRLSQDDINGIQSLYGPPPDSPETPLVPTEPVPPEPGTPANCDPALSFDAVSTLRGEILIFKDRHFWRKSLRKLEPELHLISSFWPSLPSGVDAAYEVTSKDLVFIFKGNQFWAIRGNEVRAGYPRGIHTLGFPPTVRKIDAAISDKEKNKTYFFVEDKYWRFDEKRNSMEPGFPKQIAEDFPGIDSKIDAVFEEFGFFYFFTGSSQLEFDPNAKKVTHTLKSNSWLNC
Description: as §1

[5] = biological target: Human leucocyte collagenase (MMP-8) (Homo sapiens, UniProt P22894); experiment: Inhibition of purified human leucocyte collagenase in vitro; assay type: biochemical
Chain of Human leucocyte collagenase (MMP-8) (P22894 101-467): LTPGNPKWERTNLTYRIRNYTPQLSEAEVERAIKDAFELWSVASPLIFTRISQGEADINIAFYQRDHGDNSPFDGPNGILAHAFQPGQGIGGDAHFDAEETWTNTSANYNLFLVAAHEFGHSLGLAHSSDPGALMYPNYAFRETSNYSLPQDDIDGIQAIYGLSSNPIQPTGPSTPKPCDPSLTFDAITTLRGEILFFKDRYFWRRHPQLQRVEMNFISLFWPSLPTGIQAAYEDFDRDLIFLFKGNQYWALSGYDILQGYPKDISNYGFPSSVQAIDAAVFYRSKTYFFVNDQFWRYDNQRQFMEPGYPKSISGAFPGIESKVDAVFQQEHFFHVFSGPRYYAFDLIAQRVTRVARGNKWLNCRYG
Description: as §1

[6] = biological target: T2, Human fibroblast collagenase (MMP-1) (Homo sapiens, UniProt P03956); experiment: Inhibition of purified human fibroblast collagenase in vitro; assay type: biochemical; conditions: read-out: Human fibroblast collagenase (MMP-1): % inhibition at concentration
T2 sequence (P03956 100-469): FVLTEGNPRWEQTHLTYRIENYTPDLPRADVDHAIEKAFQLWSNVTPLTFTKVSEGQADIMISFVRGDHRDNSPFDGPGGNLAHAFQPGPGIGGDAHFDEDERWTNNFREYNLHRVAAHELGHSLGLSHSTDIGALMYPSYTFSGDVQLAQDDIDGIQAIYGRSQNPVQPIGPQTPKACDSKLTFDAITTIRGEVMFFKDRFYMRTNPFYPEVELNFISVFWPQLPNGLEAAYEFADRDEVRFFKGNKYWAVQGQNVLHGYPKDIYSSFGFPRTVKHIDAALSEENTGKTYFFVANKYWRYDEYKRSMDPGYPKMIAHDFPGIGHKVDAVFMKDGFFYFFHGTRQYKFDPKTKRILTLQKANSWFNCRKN
Description: as §1

pIC50 [1] | pIC50 [2] | pIC50 [4] | pIC50 [5] | inhibition at 100 µM ([5]; 100 μM, read-out: Human leucocyte collagenase (MMP-8): % inhibition at concentration) [%] | inhibition at 100 µM [6] [%] | inhibition at 100 µM ([4]; 100 μM, read-out: Stromelysin-1 (MMP-3) % inhibition at concentration) [%] | Structure (SMILES) | Chondrocytes: Mineralisation in the presence of LPS; action (percentage increase in mineralisation in comparison with the LPS-treated culture) [3]
5.26 | 4.14 | 3.07 | 4.22 | – | – | – | COC(=O)C1=Cc2cc(O)c(O)c(O)c2CC1 [Example 1, 5,6,7-trihydroxy-3,4-dihydronaphthalene-2-carboxylic acid methyl ester] | +42%
4.26 | – | – | – | – | – | – | OCC#CCCCCCCC#Cc1ccc(O)c(O)c1 [Example 4, 4-(11-hydroxy-undeca-1,9-diynyl)-1,2-benzene diol] | +12%
– | – | – | – | – | – | – | O=C(c1ccc(O)c(O)c1)c1cc(-c2ccccc2)[nH]n1 [Example 6, (3,4-dihydroxy-phenyl)(5-phenyl-1H-pyrazol-3-yl)-methanone] | +17%
5.80 | – | 3.49 | – | 40 | – | – | CCCCCCCCCOc1ccc(O)c(O)c1 [Example 3, 4-nonyloxy-1,2-benzene diol] | +43%
5.70 | – | – | 3.76 | – | – | – | CCCCCC#Cc1ccc(O)c(O)c1C=CC(=O)OC [Example 2, 3-(6-hept-1-ynyl-2,3-dihydroxy-phenyl)-acrylic acid methyl ester] | +38%
6.90 | 4.49 | – | 4.00 | – | 40 | 22 | Oc1ccc(C=Cc2ccc3ccccc3c2)cc1O [Example 5, 4-(2-naphth-2-yl-vinyl)-1,2-benzene diol] | +81%
